Laboratory results from patent publication US10739304B2, “Organic transistor-based system for electrophysiological monitoring of cells and method for the monitoring of the cells” (UNIVERSITA DEGLI STUDI DI CAGLIARI, priority 2015, dated 2020).

Tested on: rat cardiomyocytes culture
Assay: Spontaneous electrical (beating) activity of rat cardiomyocyte culture recorded with the organic transistor (OCMFET) system, pharmacological modulation
Assay type: cell-based
Conditions: 100 μM; for beating frequency modulation: spike-count on 4 min: rat cardiomyocytes culture (8 DIV) at 37° C., Verapamil added after Norepinephrine, statistics on 5 transistors, average and standard deviation, basal 129±4.6; for chemical tuning of the culture's spontaneous activity (drain current vs time): rat cardiomyocytes culture at 37° C., Norepinephrine first, then Verapamil
From the text: The system 100 was able to detect the occurrence of the signals (similarly to what MEA-based devices do), the beat rate and its rapid changing related to pharmacological modulations, obtained by applying both positive and negative chronotropic compounds (according to the method described in Simpson, P. Stimulation of hypertrophy of cultured neonatal rat heart cells through an alpha 1-adrenergic receptor and induction of beating through an alpha 1- and beta 1-adrenergic receptor interaction. Evidence for independent regulation of growth and beating. Circ. Res. 56, 884-894 (1985); Yonemochi, H., Saikawa, T., Takakura, T., Ito, S., Takaki, R. Effects of calcium antagonist on β-receptors of cultured cardiac myocytes isolated from neonatal rat ventricle. Circulation 81, 1401-1408 (1990)). In FIG. 13 an example of extracellular action potentials measured, with an organic transistor 10 is shown. Considering a p-type organic transistor and a first inverting stage of the readout electronics, the shape of the single signal shown in FIG. 13 is consistent with the expected current fluctuation caused by the ionic charge displacement in the early phase of the cardiac action potential. The drain current IDS fluctuation is driven by the fast movement of Na+ ions occurring at the very beginning of the intracellular action potential.
Systematic measurements by recording the spontaneous electrophysiological activity of rat cardiomyocytes (8 Days InVitro—DIV) by means of the system 100 (FIG. 14) have been performed.
All the measurements relative to the pharmacological modulation of the electrical activity were performed while maintaining the culture at constant temperature (37° C.) and the same reliable results were obtained in five recording devices simultaneously.

SMILES | beating frequency modulation: spike-count on 4 min | chemical tuning of the culture's spontaneous activity (drain current vs time)
NC[C@H](O)c1ccc(O)c(O)c1 [Norepinephrine] | 280±28.6 | accelerated
COc1ccc(CCN(C)CCCC(C#N)(c2ccc(OC)c(OC)c2)C(C)C)cc1OC (stereo not shown) [Verapamil] | 15±1.9 | suppressed
